# Measured values: patent US20100048519A1, “METHODS OF TREATMENT FOR ULCERATIVE COLITIS USING AMINOSALICYLATE” (priority 2006, published 2010)
# Assays:
# Type in all cases: in vivo, human
# [1] = tested on: person diagnosed with moderate Ulcerative colitis; assay: Single-patient treatment examples (Examples 2-5): person diagnosed with moderate ulcerative colitis
# Text: A 70 kg person diagnosed with moderate Ulcerative colitis is prescribed a pharmaceutical oral composition comprising 1.2 g of olsalazine (mol. wt. 302.24), a mesalamine dimer, two tablets to be taken twice daily for a total of 4.8 g/day of the 5-ASA dimer (5-ASA mol. wt.=153.14). The patient takes two tablets of the pharmaceutical in the morning and two tablets in the evening such that about 4.8 g/day of 5-ASA is delivered. The Physician's Global Assessment (PGA) score improves in comparison to baseline and rectal bleeding reduces. A 72 kg person diagnosed with moderate Ulcerative colitis is prescribed a pharmaceutical composition comprising four 1.2 g mesalamine delayed-release tablets, to be taken once daily. The four tablets are taken in the morning so that 4.8 g/day of 5-ASA is delivered. The Physician's Global Assessment (PGA) score improves in comparison to baseline and rectal bleeding reduces. A 75 kg person diagnosed with moderate Ulcerative colitis is prescribed a pharmaceutical oral composition comprising two 1.2 g balsalazide delayed-release tablets, to be taken three times daily for a total of 7.2 g/day of balsalazide; this regimen is calculated to deliver about 3.1 g of 5-ASA. The Physician's Global Assessment (PGA) score improves in comparison to baseline and rectal bleeding reduces. A 71 kg person diagnosed with moderate Ulcerative colitis is prescribed a pharmaceutical composition comprising a rectal mesalamine foam. The foam is administered three times per day (morning, afternoon, and evening) such that 1 g of mesalamine is administered at each interval for a total of 3 g of mesalamine per day. The Physician's Global Assessment (PGA) score improves in comparison to baseline and rectal bleeding is reduced.
# [2] = tested on: male patients with moderate ulcerative colitis; assay: Study 2: phase III, multi-center, randomized, double-blind, controlled clinical trial, overall improvement (treatment success) at week 6; details: moderate disease
# Description: (§1) Administration of mesalamine at 4.8 g/day via three daily doses consisting of two, 800 mg dosage tablets provides a clear efficacy benefit over 2.4 g/day of mesalamine given as three daily doses consisting of two, 400 mg dosage tablets and addresses an unmet medical need for men with moderate ulcerative colitis. […] Data from patients with mild to moderate Ulcerative colitis (UC) are combined and analyzed from two phase III, multi-center, randomized, double-blind, controlled clinical trials of identical design assessing the safety and clinical efficacy of the increased dosage of 5-ASA. The two clinical trials are referred to herein as “Study 1” and “Study 2.” The primary endpoint is the percentage of moderate UC patients achieving overall improvement (i.e., treatment success) from baseline at week 6. This is defined as: (1) complete response (remission); complete resolution of signs and symptoms (stool frequency, rectal bleeding, Patient Functional Assessment (PFA) and sigmoidoscopy score) and a Physician's Global Assessment (PGA) of 0; or (2) partial response; improvement from baseline in the PGA score and improvement in at least one clinical assessment (stool frequency, rectal bleeding, PFA or sigmoidoscopy score) and no worsening in any of the other clinical assessments. […]
# [3] = tested on: male patients with moderate ulcerative colitis; assay: Study 1: phase III, multi-center, randomized, double-blind, controlled clinical trial, overall improvement (treatment success) at week 6; details: moderate disease
# Description: as §1
# [4] = tested on: male patients with moderate ulcerative colitis; assay: Bayesian analysis of success rate in men with moderate disease
# Description: In addition, a Bayesian analysis is conducted to calculate the probability that treatment with the 4.8 g/day dose in men results in a higher success rate than treatment with the 2.4 g/day dose. This type of analysis considers data from any previous studies conducted using either of the two dose levels. Success rates from male patients with moderate disease at baseline from three previous mesalamine studies are used to estimate the prior distributions for the 2.4 g/day dose and the 4.8 g/day dose. Using these prior distributions and Bayes analyses, the “posterior distribution” is calculated for each dose level based on the data obtained from […].
# [5] = tested on: male patients with moderate ulcerative colitis; assay: Study 1 and Study 2 combined: subgroup analyses and safety
# Description: Data from patients with mild to moderate Ulcerative colitis (UC) are combined and analyzed from two phase III, multi-center, randomized, double-blind, controlled clinical trials of identical design assessing the safety and clinical efficacy of the increased dosage of 5-ASA. The two clinical trials are referred to herein as “Study 1” and “Study 2.” Pre-specified subgroup analyses for fifty-four demographic and baseline characteristics are performed in patients with moderately active disease (PGA score=2) to assess consistency of primary endpoint. […] To further evaluate the robustness of the results in men with moderate disease, whisker plots (i.e., point estimate and 95% confidence interval for the difference between the 2.4 g/day group and the 4.8 g/day group) for various subgroups defined on the basis of baseline characteristics (e.g., disease severity, demographic parameters) are prepared. […] FIG. 1 (a) is a subgroup analysis of treatment outcome at week 6 for male patients with moderate disease for Study 1 and Study 2 combined; (b) is a subgroup analysis of treatment outcome at week 6 for female patients with moderate disease for Study 1 and Study 2 combined. FIG. 2 (a) is a subgroup analysis of treatment outcome at week 6 for male patients with moderate disease for Study 1 and Study 2 combined; (b) is a subgroup analysis of treatment outcome at week 6 for female patients with moderate disease for Study 1 and Study 2 combined. FIG. 3 (a) is a subgroup analysis of treatment outcome at week 6 for male patients with moderate disease for Study 1 and Study 2 combined; (b) is a subgroup analysis of treatment outcome at week 6 for female patients with moderate disease for Study 1 and Study 2 combined. […]
# [6] = Example 3, four 1.2 g delayed-release tablets once daily, 4.8 g/day, 72 kg person
# [7] = Example 4, oral, two 1.2 g delayed-release tablets three times daily, 7.2 g/day (about 3.1 g 5-ASA), 75 kg person
compound,measurement,setting,value
"Nc1ccc(O)c(C(=O)O)c1 [mesalamine, 5-amino-2-hydroxybenzoic acid]",Physician's Global Assessment (PGA) score in comparison to baseline,[1]; [6],improves
same,Rectal bleeding,[1]; [6],reduces
same,Difference in Proportions (4.8 g/day vs 2.4 g/day),[2]; Primary Analysis,27.5%
same,Difference in Proportions (4.8 g/day vs 2.4 g/day),[2]; Set-to-Failure analysis,24.8%
same,Difference in Proportions (4.8 g/day vs 2.4 g/day),[3]; Primary Analysis,25.5%
same,Difference in Proportions (4.8 g/day vs 2.4 g/day),[3]; Set-to-Failure analysis,27.3%
same,Probability of a successful treatment outcome (Bayes analysis),"[4]; 2.4 g/day dose, 95% credible interval 35.7%, 58.9%",47.2%
same,Probability of a successful treatment outcome (Bayes analysis),"[4]; 4.8 g/day dose, 95% credible interval 64.9%, 83.5%",74.7%
same,Probability that 4.8 g/day dose results in a higher success rate than 2.4 g/day dose,[4]; Bayes analysis,99.97%
same,Safety profile of 4.8 g/day regimen versus 2.4 g/day regimen,"[5]; 4.8 g/day (800 mg tablet) vs 2.4 g/day (400 mg tablet), oral delayed-release",comparable
same,Difference between 4.8 g/day group and 2.4 g/day group across pre-specified subgroups,"[5]; males with moderate disease, combined population, 51 of 54 subgroups",consistently superior to the 2.4 g/day group
same,Observed differences in success rate between treatment groups (4.8 vs 2.4 g/day),"[5]; men with moderate disease, both studies",approximately 25%
"O=C(O)c1cc(N=Nc2ccc(O)c(C(=O)O)c2)ccc1O [olsalazine, 3,3′-dicarboxy-4,4′-dihydroxyazobenzene]",Physician's Global Assessment (PGA) score in comparison to baseline,"[1]; Example 2, oral, two 1.2 g tablets twice daily, 4.8 g/day, 70 kg person",improves
"O=C(O)CCNC(=O)c1ccc(/N=N/c2ccc(O)c(C(=O)O)c2)cc1 [balsalazide, (E)-5-[[4-[[(2-carboxyethyl)amino]carbonyl]phenyl]azo]-2-hydroxybenzoic acid]",Physician's Global Assessment (PGA) score in comparison to baseline,[1]; [7],improves
same,Rectal bleeding,[1]; [7],reduces
